# Source: the SangsterLogP compilation
# Test: method code SF-AS, from DOI: 10.1021/jm00294a001, PMID: 5116225
row,SMILES,logP
1,C=CC12COC(=O)C(=C)C1C(OC(C)=O)C1C(=C)C(=O)OC1C2 (centres undefined),0.25
2,C=C1C(=O)OC2C1C(OC(=O)C(C)=CC)CC(=C)C1C(O)C3OC3(C)C21O (centres undefined),1.69
3,C=C1C(=O)O[C@H]2[C@H]1[C@H](OC(=O)/C(C)=C\C)C[C@]1(CO1)[C@@H]1[C@H](OC(C)=O)C=C(C)[C@]21O,0.76
4,C=C(C)C(=O)O[C@H]1CC2=C[C@@H](C[C@@]3(C)O[C@@H]3[C@H]3OC(=O)C(=C)[C@@H]31)OC2=O,0.69
5,C=C1C(=O)OC2C=C(C)C3(O)C=CC(C)(CC(OC(=O)C(=CC)COC(C)=O)C12)O3 (centres undefined),1.19
6,C=C1C(=O)O[C@@H]2C[C@@H](C)[C@@H]3C=CC(=O)[C@@]3(C)[C@@H](O)[C@H]12,0.87
7,C=C[C@@]12COC(=O)C(=C)[C@@H]1[C@H]1OC(=O)C(=C)[C@@H]1[C@@H](OC(=O)C(=C)C)C2,1.56
8,C=CC12COC(=O)C(=C)C1C1OC(=O)C(=C)C1C(OC(C)=O)C2 (centres undefined),0.79
9,C=C1C(=O)O[C@H]2C[C@@H](C)[C@@H]3C=CC(=O)[C@@]3(C)C[C@H]12,1.17
10,C=CC12COC(=O)C(=C)C1C(O)C1C(=C)C(=O)OC1C2 (centres undefined),-0.14
11,C=C1C(=O)OC2C1C(OC(=O)C(C)=CC)CC(O)(CCl)C1C(OC(C)=O)C=C(C)C21O (centres undefined),1.42
12,C=C1C(=O)O[C@H]2[C@H]1[C@@H](OC(=O)C=C(C)C)CC1=C[C@@H](C[C@@]3(C)O[C@H]23)OC1=O,1.05
13,C=C1C(=O)OC2C1CCC(C)C1(O)C=CC(=O)C21C (centres undefined),0.77

# Results, then the compound that gave them:
row,logP,SMILES
1,1.14,C=C1C(=O)OC2CC(C)=CCC(OC(C)=O)C(C)=CC(OC(C)=O)C12 (centres undefined)
2,-0.64,C=C1C(=O)O[C@H]2CC3=C[C@@H](C[C@@]4(C)O[C@@H]4[C@@H](O)[C@H]12)OC3=O
3,0.83,C=C1C(=O)O[C@@H]2[C@H]1CC[C@H](C)[C@]1(O)CCC(=O)[C@@]21C
4,0.31,C=C[C@@]12COC(=O)C(=C)[C@@H]1[C@H]1OC(=O)C(=C)[C@@H]1[C@@H](O)C2
5,1.09,C=C1C(=O)OC2C=C(C)C3C(OC(C)=O)CC(O)C3CC12 (centres undefined)
6,1.03,C=C1C(=O)OC2C1CCC(C)C1C=CC(=O)C12C (centres undefined)
7,1.23,C=C1C(=O)O[C@@H]2/C=C(/C)C[C@H](O)/C=C(/C)CC[C@@H]12
8,0.66,C=C1C(=O)O[C@@H]2[C@H]1CC[C@H](C)[C@@H]1C[C@@H](O)C(=O)[C@@]21C
9,1.4,C=C1C(=O)OC2C=C(C)C(O)CC=C(C)CCC12 (centres undefined)
10,0.23,C=C1C(=O)OC2C1C(O)CC(C)C1CCC(=O)C12C (centres undefined)
11,1.16,C=C1C(=O)OC2C=C(C)C(OC(C)=O)CC(O)C(C)=CC(OC(=O)C(C)=CC)C12 (centres undefined)
